Assay results published in ChEMBL document CHEMBL3525905, “Brain distribution and bioavailability of elacridar after different routes of administration in the mouse” (Drug Metab Dispos, 2012).

Experiments:
[1] = Tmax in wild type FVB mouse plasma at 100 mg/kg, po; format: ADME, organism-based; parameters: dose 100 mg/kg, route oral
Plasma [2] = experiment: Bioavailability in wild type FVB mouse at 100 mg/kg, ip; format: ADME, organism-based; details: in vivo
[3] = AUC (0 to infinity) in wild type FVB mouse plasma at 100 mg/kg, po; format: ADME, organism-based; parameters: time infinity, dose 100 mg/kg, route oral
[4] = Ratio of AUC in brain to plasma in wild type FVB mouse plasma at 100 mg/kg, po; format: ADME, organism-based; parameters: dose 100 mg/kg, route oral; details: brain and plasma
[5] = Ratio of AUC in brain to plasma in wild type FVB mouse plasma at 100 mg/kg, ip; format: ADME, organism-based; parameters: dose 100 mg/kg, route intraperitoneal; details: brain and plasma
[6] = Cmax in wild type FVB mouse plasma at 100 mg/kg, po; format: ADME, organism-based; parameters: dose 100 mg/kg, route oral
[7] = Apparent oral volume of distribution in wild type FVB mouse at 100 mg/kg, po; format: ADME, organism-based; parameters: dose 100 mg/kg, route oral; details: plasma
[8] = Cmax in wild type FVB mouse brain at 100 mg/kg, ip; format: ADME, organism-based; parameters: dose 100 mg/kg, route intraperitoneal
[9] = AUC (0 to infinity) in wild type FVB mouse brain at 2.5 mg/kg, iv; format: ADME, organism-based; parameters: time infinity, dose 2.5 mg/kg, route intravenous
[10] = Terminal half life in wild type FVB mouse plasma at 2.5 mg/kg, iv; format: ADME, organism-based; parameters: dose 2.5 mg/kg, route intravenous; details: read-out: beta t1/2 (converted)
[11] = Cmax in wild type FVB mouse brain at 100 mg/kg, po; format: ADME, organism-based; parameters: dose 100 mg/kg, route oral
[12] = AUC (0 to infinity) in wild type FVB mouse brain at 100 mg/kg, po; format: ADME, organism-based; parameters: time infinity, dose 100 mg/kg, route oral
[13] = Terminal half life in wild type FVB mouse brain at 100 mg/kg, ip; format: ADME, organism-based; parameters: dose 100 mg/kg, route intraperitoneal; details: read-out: beta t1/2 (converted)
[14] = Oral bioavailability in wild type FVB mouse at 100 mg/kg; format: ADME, organism-based; details: plasma
[15] = Apparent plasma clearance in wild type FVB mouse at 100 mg/kg, po; format: ADME, organism-based; parameters: dose 100 mg/kg, route oral
[16] = Terminal half life in wild type FVB mouse brain at 100 mg/kg, po; format: ADME, organism-based; parameters: dose 100 mg/kg, route oral; details: read-out: beta t1/2 (converted)
[17] = Apparent oral volume of distribution in wild type FVB mouse plasma at 100 mg/kg, ip; format: ADME, organism-based; parameters: dose 100 mg/kg
[18] = AUC (0 to last) in wild type FVB mouse plasma at 100 mg/kg, po; format: ADME, organism-based; parameters: time 0 - last, dose 100 mg/kg, route oral
[19] = Apparent plasma clearance in wild type FVB mouse plasma at 100 mg/kg, ip; format: ADME, organism-based; parameters: dose 100 mg/kg, route intraperitoneal
[20] = AUC (0 to infinity) in wild type FVB mouse brain at 100 mg/kg, ip; format: ADME, organism-based; parameters: dose 100 mg/kg, route intraperitoneal, time infinity
[21] = Terminal half life in wild type FVB mouse plasma at 100 mg/kg, po; format: ADME, organism-based; parameters: dose 100 mg/kg, route oral; details: read-out: beta t1/2 (converted)
[22] = Terminal half life in wild type FVB mouse brain at 2.5 mg/kg, iv; format: ADME, organism-based; parameters: dose 2.5 mg/kg, route intravenous; details: read-out: beta t1/2 (converted)
[23] = AUC (0 to last) in wild type FVB mouse plasma at 100 mg/kg, ip; format: ADME, organism-based; parameters: time 0 - last, dose 100 mg/kg, route intraperitoneal
[24] = Cmax in wild type FVB mouse brain at 2.5 mg/kg, iv; format: ADME, organism-based; parameters: dose 2.5 mg/kg, route intravenous
[25] = Ratio of AUC in brain to plasma in wild type FVB mouse plasma at 2.5 mg/kg, iv; format: ADME, organism-based; parameters: dose 2.5 mg/kg, route intravenous; details: brain and plasma
[26] = Terminal half life in wild type FVB mouse plasma at 100 mg/kg, ip; format: ADME, organism-based; parameters: dose 100 mg/kg, route intraperitoneal; details: read-out: beta t1/2 (converted)
Plasma [27] = experiment: Bioavailability in wild type FVB mouse at 2.5 mg/kg, iv; format: ADME, organism-based; details: in vivo
[28] = AUC (0 to last) in wild type FVB mouse brain at 2.5 mg/kg, iv; format: ADME, organism-based; parameters: time 0 - last, dose 2.5 mg/kg, route intravenous
[29] = Tmax in wild type FVB mouse brain at 100 mg/kg, po; format: ADME, organism-based; parameters: dose 100 mg/kg, route oral
Plasma [30] = experiment: AUC (0 to infinity) in wild type FVB mouse plasma at 100 mg/kg, ip; format: ADME, organism-based; parameters: time infinity, dose 100 mg/kg, route intraperitoneal; details: in vivo
[31] = Apparent oral volume of distribution in wild type FVB mouse plasma at 2.5 mg/kg, iv; format: ADME, organism-based; parameters: dose 2.5 mg/kg
Plasma [32] = experiment: AUC (0 to infinity) in wild type FVB mouse plasma at 2.5 mg/kg, iv; format: ADME, organism-based; parameters: time infinity, dose 2.5 mg/kg, route intravenous; details: in vivo
[33] = AUC (0 to last) in wild type FVB mouse brain at 100 mg/kg, po; format: ADME, organism-based; parameters: time 0 - last, dose 100 mg/kg, route oral
[34] = Lipophilicity, logP of the compound; format: physicochemical; details: octanol/water
[35] = AUC (0 to last) in wild type FVB mouse plasma at 2.5 mg/kg, iv; format: ADME, organism-based; parameters: time 0 - last, dose 2.5 mg/kg, route intravenous
[36] = […] Kp, ratio of AUC in brain to plasma in wild type FVB mouse plasma at 10 mg/kg, ip; format: ADME, organism-based; parameters: dose 10 mg/kg, route intraperitoneal; details: brain and plasma
[37] = Tmax in wild type FVB mouse plasma at 100 mg/kg, ip; format: ADME, organism-based; parameters: dose 100 mg/kg, route intraperitoneal
[38] = Tmax in wild type FVB mouse brain at 100 mg/kg, ip; format: ADME, organism-based; parameters: dose 100 mg/kg, route intraperitoneal
[39] = Cmax in wild type FVB mouse plasma at 100 mg/kg, ip; format: ADME, organism-based; parameters: dose 100 mg/kg, route intraperitoneal
[40] = AUC (0 to last) in wild type FVB mouse brain at 100 mg/kg, ip; format: ADME, organism-based; parameters: time 0 - last, dose 100 mg/kg, route intraperitoneal
[41] = Tmax in wild type FVB mouse brain at 2.5 mg/kg, iv; format: ADME, organism-based; parameters: dose 2.5 mg/kg, route intravenous
Plasma [42] = experiment: Apparent plasma clearance in wild type FVB mouse plasma at 2.5 mg/kg, iv; format: ADME, organism-based; parameters: dose 2.5 mg/kg, route intravenous; details: in vivo
[43] = Tmax in wild type FVB mouse plasma at 2.5 mg/kg, iv; format: ADME, organism-based; parameters: dose 2.5 mg/kg, route intravenous
[44] = Cmax in wild type FVB mouse plasma at 2.5 mg/kg, iv; format: ADME, organism-based; parameters: dose 2.5 mg/kg, route intravenous

Tmax [1]: 8 h
F (Plasma [2]): 13%
AUC(0-inf) [3]: 24.3 µg·h/mL
Kp [4]: 4.31
Kp [5]: 0.48
Cmax [6]: 0.78 µg/mL
Vd/F [7]: 3.5 L
Cmax [8]: 0.061 µg/mL
AUC(0-inf) [9]: 2.19 µg·h/mL
half-life [10]: 4.4 h
Cmax [11]: 4.34 µg/mL
AUC(0-inf) [12]: 105 µg·h/mL
half-life [13]: 9.2 h
bioavailability [14]: 22%
CL/F [15]: 2.05 mL/min
half-life [16]: 16 h
Vd/F [17]: 12.3 L
AUC(0-t) [18]: 13.2 µg·h/mL
CL/F [19]: 33.2 mL/min
AUC(0-inf) [20]: 0.725 µg·h/mL
half-life [21]: 20 h
half-life [22]: 1.5 h
AUC(0-t) [23]: 1.06 µg·h/mL
Cmax [24]: 1.05 µg/mL
Kp [25]: 0.82
half-life [26]: 4.3 h
F (Plasma [27]): 100%
AUC(0-t) [28]: 2.14 µg·h/mL
Tmax [29]: 8 h
AUC (Plasma [30]): 90.3 µg·min/mL
Vd/F [31]: 0.17 L
AUC (Plasma [32]): 161.4 µg·min/mL
AUC(0-t) [33]: 64.8 µg·h/mL
logP [34]: 5.67
AUC(0-t) [35]: 2.31 µg·h/mL
Kp [36]: 0.0784
Tmax [37]: 0.5 h
Tmax [38]: 4 h
Cmax [39]: 0.295 µg/mL
AUC(0-t) [40]: 0.332 µg·h/mL
Tmax [41]: 0.5 h
CL/F (Plasma [42]): 0.46 mL/min
Tmax [43]: 0.5 h
Cmax [44]: 0.564 µg/mL
Compound: COc1cc2c(cc1OC)CN(CCc1ccc(NC(=O)c3cccc4c(=O)c5cccc(OC)c5[nH]c34)cc1)CC2 [ELACRIDAR]
